In patent publication US20220146492A1, “CELL MEMBRANE PERMEABILITY RESTORING THERAPY” (priority 2019, published 2022):

Tested on: RBCs
Assay: Cell scan of RBC membrane permeability (Pk0) after contacting whole blood from a healthy volunteer with an agent
Type: cell-based, human
Settings: for Induction of water permeability resistance (decreased RBC membrane permeability to water): agents at concentrations consistent with in vivo concentration; for Pk0 (mOsm/kg): whole blood in ACD, healthy volunteer, measured after exposure (method: five minutes), lactose 1:20 (v/v) saturated lactose solution, amphotericin B 0.5 μg/mL
Description: A sample of whole blood from a healthy volunteer was drawn into ACD anticoagulant. The unwashed sample was divided into aliquots and was analyzed using the Prior Shine Technology and/or the Provided Cell Scanning Technologies. The following outputs were obtained from the sample:
Using the technologies described herein, a cell-by-cell analysis was converted into a plot of percent change of cell volume vs. osmolality (“Cell Scan Plot”) by converting the individual peak voltage into a cell volume, then calculating a mean volume for an aliquot of cells, and plotting the means to generate the Cell Scan Plot. The percentage change of cell volume at each osmolality is calculated and compared to the mean cell volume of an isotonic cell (e.g., FIG. 1b). On such a plot, Pk0 (see 101) is the osmotic pressure at which the net water flow is zero (i.e., when a cell achieved its maximum volume, i.e., when it is a perfect sphere). As described herein, in some embodiments, Pk0 can be used as an indicator of an individual's health status.
A sample of whole blood from a healthy volunteer was drawn into ACD anticoagulant. Blood samples were divided into aliquots, and each sample was contacted with an agent at concentrations consistent with the agent's in vivo concentration. Agents that were tested included alcohols, alpha fetoproteins, amphotericin B, bovine albumen, carcinoembryonic antigen (CEA), concanavalin A (Con A), fetuin, fibronectin, 5-HT, kallikrein, ovomucoid, prostacyclin, prostaglandin, semen, transferrin, and several sugars, including N-acetyl-D-glucosamine, N-acetyl neurominic acid, 2-deoxy-D-ribose, fructose, D- and L-arabinose, beta-D-galactopyranoside, erythrose, D- and L-fucose, D- and L-glucose, D-galactose, lactose, maltose, iso-maltose, D-mannose, mannitol, L-rhamnose, ribose, sucrose, and D-xylose. Five minutes after exposure to an agent, the blood sample was evaluated for cell membrane permeability and Pk0 was measured. […] Lactose ([…]) lowered Pk0 to 110 mOsm/kg.
A sample of whole blood from a healthy volunteer was drawn into ACD anticoagulant. The sample was then treated with 5-HT (900 ng/mL), and cell membrane permeability was evaluated 5 minutes after treatment.

Compound	Induction of water permeability resistance (decreased RBC membrane permeability to water)	Pk0 (mOsm/kg) (5-HT 900 ng/mL)	Pk0 lowered to (after 10 minutes) [mOsm/kg]	Pk0 after treatment with 5-HT (5-HT 900 ng/mL, 5 minutes after treatment, normal Pk0 before approx. 140 mOsm/kg (FIG. 8))	Pk0 shift after contacting with 5-HT (FIG. 8, RBCs from normal healthy individual, before vs after 5-HT)
C[C@@H]1[C@H](O)[C@@H](C)/C=C/C=C/C=C/C=C/C=C/C=C/C=C/[C@H](O[C@@H]2O[C@H](C)[C@@H](O)[C@H](N)[C@@H]2O)C[C@@H]2O[C@](O)(C[C@@H](O)C[C@@H](O)[C@H](O)CC[C@@H](O)C[C@@H](O)CC(=O)O[C@H]1C)C[C@H](O)[C@H]2C(=O)O [Amphotericin B]	identified as RBC membrane permeability decreasing agents	85	–	–	–
OC[C@H]1O[C@@H](O[C@H]2[C@H](O)[C@@H](O)C(O)O[C@@H]2CO)[C@H](O)[C@@H](O)[C@H]1O (stereo partly drawn) [Lactose]	identified as RBC membrane permeability decreasing agents	110	110	–	–
NCCc1c[nH]c2ccc(O)cc12 [Agent 5-HT, 5-hydroxytryptamine]	effective within minutes	110	–	approx. 110 mOsm/kg	approx. 30 mOsm/kg
